Reference: patent publication US9267129B2, “Compositions and methods for conferring herbicide resistance” (BEN-GURION UNIVERSITY OF THE NEGEV RESEARCH AND DEVELOPMENT …, priority 2011, dated 2016)

System: E. coli BUM1 carrying the mutant gene (pEp-mut)
Assay: Growth on M9 plates with SMM, bacteria carrying the mutant gene
Format: cell-based, Escherichia coli
Details: 50 μM SMM, 48 hrs, 37° C.
Protocol: This strain also requires proline and thiamin, regardless of AHAS expression. Transformation of BUM1 cells was achieved using a standard heat shock protocol. BUM1 cells were grown in LB or in M9 minimal medium (7 mg/ml Na2HPO4; 3 mg/ml KH2PO4; 0.5 mg/ml NaCl; 1 mg/ml NH4Cl; 0.12 mg/ml MgSO4; 0.35 mg/ml thiamin HCl; 2 mg/ml glucose) supplemented with 200 μg/ml proline. Where appropriate, the M9 medium was supplemented with the BCAAs valine, leucine, and isoleucine (150 μg/ml of each) or with 50 μM SMM. BUM1 transformants were propagated and kept on LB medium supplemented with 100 μg/ml Ampicillin. For functional expression assays, the cells were washed and plated on M9 agar plates and incubated for 48 hrs at 37° C. […]
The expression vector pEp-empty, an empty plasmid that retains the native ilvEp promoter and ATG start codon, was created by amplification of pAH29 plasmid with the pAH29-empty primer set, and included BamHI and SalI restriction sites for future fusion with the algal genes. Three forms of PiAHAS genes were used for this experiment: PiAHAS full open reading frame (ORF), truncated PiAHAS without the estimated chloroplast targeting peptide (from Serine91), and PimAHAS containing the point mutation (W605S). […] The plates were incubated for 48 hrs (FIG. 3) and bacterial growth was determined. […]

COC(=O)c1ccccc1S(=O)(=O)NC(=O)Nc1nc(C)cc(C)n1 [SMM, sulfometuron methyl]
bacterial growth in presence of SMM: not affected
